Tests used:
M1-cam5 mAChR [1] = biological target: T1, M1-cam5 mAChR (Mus musculus, UniProt P12657, INS361[…]); assay: FRET measurements (FEYFP/FECFP) in HEK293-M1-cam5 cells; type: cell-based; set-up: addition of the EYFP^F46L to the C-terminus of full length M1 mAChR; expressed in transfected cells; host or cells: HEK293 cells stably expressing M1-cam5 (HEK293-M1-cam5); conditions: for maximal FRET decrease: maximally effective concentration (MCh 300 µM, arecoline 300 µM, pilocarpine 300 µM, 77-LH-28-1 10 µM, AC-42 30 µM), room temperature
Procedure: The experiments were performed at room temperature.
We also assessed the kinetics of MCh-mediated receptor conformational change with time-resolved determinations of the FRET signal recorded from single cells on activation of M1-cam5 mAChR with various concentrations of MCh.

M1-cam5 AChR = biological target: T2, M1-cam5 AChR (Mus musculus, UniProt P12657, INS361[…]); assay: [3H]NMS competition binding in intact HEK293-M1-cam5 cell monolayers; conditions: [3H]NMS (~0.3 nM) competition, agonists 4°C for 4 h, antagonists 37°C for 45 min, mean ± s.e.m.
T2 construct: addition of the EYFP^F46L to the C-terminus of full length M1 mAChR; expressed in transfected cells; host or cells: HEK293 cells stably expressing M1-cam5 (HEK293-M1-cam5)
Procedure: Briefly, HEK293-M1-cam5 cells were seeded at a density of 75,000 cells/well in 24-well plates. […] […] After cell solubilization, SafeFluor scintillation fluid was added, and samples were counted on a scintillation counter.

M1-cam5 mAChR [2] = biological target: T1, M1-cam5 mAChR; assay: Receptor internalization by confocal microscopy in HEK293-M1-cam5 cells; type: cell-based; set-up: addition of the EYFP^F46L to the C-terminus of full length M1 mAChR; expressed in transfected cells; host or cells: HEK293 cells stably expressing M1-cam5 (HEK293-M1-cam5)
Procedure: Cells were seeded on coverslips coated with 100 µg/mL poly-D-lysine in PBS. When 70–80% confluency was reached, in some instances the cells were treated with various concentrations of agonists at 37°C and fixed with 4% paraformaldehyde. After a 5 min wash with PBS, the slides were mounted with Slowfade Gold/DAPI (Invitrogen, UK). The slides were examined using an Olympus FV500 confocal microscope, ECFPc and EYFP^F46L were excited via the 458 nm and 515 nm line of the argon laser and emissions were then collected at 480–495 nm and 535–565 nm, respectively. Optical sections (0.5 µm) were taken, and representative sections corresponding to the middle of the cells are presented. For each treatment, between 20 and 30 individual cells in three random fields of view were selected and examined. Fluorescence intensity of specific regions of interest (longitudinal axis) was quantified by using the Measure function of Image J software developed at the National Institutes of Health (http://rsb.info.nih.gov/ij/), as previously described. Briefly, relative quantification of intracellular (internalized) M1-cam5 was determined by measuring the amount of total fluorescence along the longitudinal axis corresponding to the intracellular space (average 4–18 ìm) excluding nucleus. Intracellular fluorescence in cells not treated with the agonist was considered to be basal fluorescence (assigned the value of 1). All other data are normalized to this basal fluorescence level.
Figure 4 Internalization characteristics of the M1-cam5 mAChR stably expressed in HEK293 cells. HEK293-M1-cam5 cells were treated with various concentration of MCh for 45 min (to assess the concentration-dependency of receptor internalization), or with MCh (300 µM) for 0–60 min (to assess the time-dependency of receptor internalization). Cellular distributions of M1-cam5 mAChR were monitored by confocal microscopy. For quantification of intracellular fluorescence at least […] of view were examined as described in the Methods section. […]

M3 mAChRs = assay: Total [3H]inositol phosphate accumulation in wild-type HEK293 cells; type: cell-based, human; conditions: Li+ (10 mM)
Procedure: (§1) HEK293-M1-cam5 and HEK293 cells were seeded at 100,000 cells/well in 24-well plates and incubated in fresh medium containing 2.5 µCi/mL [^3H]inositol for 48 h. The assay was performed as previously described.
As an index of PLC activation, agonist-stimulated accumulation of total [^3H]IPx was assessed in the presence of Li^+ (10 mM).

M1-cam5 = biological target: T3, M1-cam5 (Mus musculus, UniProt P12657, INS361[…]); assay: eGFP-PH biosensor translocation (phosphoinositide turnover) in HEK293-M1-cam5 cells; type: cell-based; conditions: 10 µM for 60 s
T3 construct: addition of the EYFP^F46L to the C-terminus of full length M1 mAChR; expressed in transfected cells; host or cells: HEK293 cells stably expressing M1-cam5 (HEK293-M1-cam5)

M1-cam5 mAChR [3] = biological target: T1, M1-cam5 mAChR; conditions: 1–300 µM for 5 min, serum-starved HEK293-M1-cam5 cells
Procedure: Proteins were visualized using ECL reagent from GE Healthcare (Chalfont St. Giles, UK).
Phosphoinositide turnover was assessed by monitoring the translocation of the eGFP-PH probe from the plasma membrane to the cytoplasm on addition of MCh (10 µM) for 60 s, followed by washout.

[4] = biological target: M1-3ic-ECFPc and M1-cterm-EYFP^F46L (Mus musculus, UniProt P12657, INS361[…]); assay: FRET control with coexpressed M1-3ic-ECFPc and M1-cterm-EYFPF46L in HEK293 cells; conditions: 300 µM
Procedure: Briefly, HEK293 cells grown on coverslips were mounted on a Nikon Eclipse TE2000-S inverted microscope (Nikon) using an “Attofluor” cell chamber (Molecular Probes, Leiden, The Netherlands) and continuously superfused with HBS (150 mM NaCl, 10 mM HEPES, 10 mM glucose, 2.5 mM KCl, 4 mM CaCl2, 2 mM MgCl2, pH 7.4). Cells were observed using an oil immersion 63× lens, a polychrome V (Till Photonics, Gräfelfing, Germany) for excitation, and a dual emission photometric system. In order to minimize photobleaching, illumination time was set to 10–40 ms, applied with a frequency of 10 Hz. Fluorescence was measured at 535±15 nm (F535) and 480±20 nm (F480) (beam splitter DCLP 505 nm, Chroma Technology, Rockingham, VT, USA) on excitation at 436±10 nm (beam splitter DCLP 460 nm, Chroma Technology). The signals were detected by avalanche photodiodes and digitized using an analog/digital converter (Digidata 1322A, Axon Instruments, Union City, CA, USA) and stored on a PC using Axoscope software (Axon Instruments). The experiments were performed at room temperature.
FRET was assessed using the ratio of normalized EYFP^F46L/ECFPc fluorescence intensities.
HEK-293 cells were transiently transfected with either (A) M1-cam5 or (B) two separate plasmids, one encoding M1 with a C-terminal YFP^F46L tag and the other encoding M1 with an ECFPc tag at the same third intracellular loop location as M1-cam5. […]

M1-cam5 mAChR [5] = biological target: T1, M1-cam5 mAChR; assay: Total [3H]inositol phosphate accumulation in HEK293-M1-cam5 cells; type: cell-based; set-up: addition of the EYFP^F46L to the C-terminus of full length M1 mAChR; expressed in transfected cells; host or cells: HEK293 cells stably expressing M1-cam5 (HEK293-M1-cam5); conditions: in presence of Li+ (10 mM)
Procedure: as §1
As an index of PLC activation, agonist-stimulated accumulation of total [^3H]IPx was assessed in the presence of Li^+ (10 mM). […] On removal of agonist, the eGFP-PH biosensor translocated back to the plasma membrane.

Structure (SMILES) | pK B (apparent binding affinity, −log K B) (M1-cam5 AChR) | M1-cam5 mAChR internalization (endocytosis) (M1-cam5 mAChR [2]) | maximal FRET decrease (M1-cam5 mAChR [1]) | further results
CN1[C@@H]2CC[C@H]1C[C@@H](OC(=O)C(CO)c1ccccc1)C2 (stereo partly drawn) [atropine] | – | – | – | effect alone on basal M1-cam5 FRET signal (M1-cam5 mAChR [1]): no effect; prevention of agonist-induced FRET change by pre-addition (M1-cam5 mAChR [1]): completely prevented; reversal of agonist-induced FRET change (M1-cam5 mAChR [1]): reversed
C[N+](C)(C)CC#CCN1CCCC1=O [oxo-M, oxotremorine-M] | 5.94±0.10 | resulted in receptor endocytosis | – | –
CC(=O)OC(C)C[N+](C)(C)C (stereo not drawn) [MCh, methacholine] | – | internalized in response to MCh in a concentration- and time-dependent manner | 9.8±0.4% | EC50 right-shift of [3H]IPx accumulation relative to HEK293-M1-cam5 cells (M3 mAChRs): > 10 fold; translocation of the eGFP-PH biosensor from the plasma membrane to the cytoplasm (M1-cam5): detectable translocation; ERK1/2 phosphorylation (M1-cam5 mAChR [3]): rapid increase; FRET response in cells coexpressing singly tagged receptors [4]: no FRET response; [3H]IPx accumulation, maximal stimulation (M1-cam5 mAChR [5]; basal 3,781±1,792): 41,954±1,030 d.p.m. mg^−1 protein; increase in [3H]IPx accumulation, maximal stimulation (M1-cam5 mAChR [5]; over basal): 11 fold
CCCCC1CCN(CCCN2C(=O)CCc3ccccc32)CC1 [77-LH-28-1] | 6.17±0.12 | – | 6.4±0.4% | –
CCCCC1CCN(CCCC(=O)c2ccccc2C)CC1 [AC-42] | 5.11±0.11 | resulted in receptor endocytosis | 5.1±0.3% | –
